Results from patent US8492589B2, “Alkynyl phenyl derivative compounds for treating ophthalmic diseases and disorders” (Acucela Inc., priority 2007, dated 2013).
Like-named read-outs stand apart in the source and are kept apart here.

Molecular target: T1, isomerase (Mus musculus, UniProt Q91ZQ5)
T1 construct: The recovery of 11-cis-retinal after bleaching can be used to estimate the activity of isomerase in vivo; from tissue; host or cells: eyes of living CD-1 and Balb/c male mice
T1 sequence (Q91ZQ5 1-533): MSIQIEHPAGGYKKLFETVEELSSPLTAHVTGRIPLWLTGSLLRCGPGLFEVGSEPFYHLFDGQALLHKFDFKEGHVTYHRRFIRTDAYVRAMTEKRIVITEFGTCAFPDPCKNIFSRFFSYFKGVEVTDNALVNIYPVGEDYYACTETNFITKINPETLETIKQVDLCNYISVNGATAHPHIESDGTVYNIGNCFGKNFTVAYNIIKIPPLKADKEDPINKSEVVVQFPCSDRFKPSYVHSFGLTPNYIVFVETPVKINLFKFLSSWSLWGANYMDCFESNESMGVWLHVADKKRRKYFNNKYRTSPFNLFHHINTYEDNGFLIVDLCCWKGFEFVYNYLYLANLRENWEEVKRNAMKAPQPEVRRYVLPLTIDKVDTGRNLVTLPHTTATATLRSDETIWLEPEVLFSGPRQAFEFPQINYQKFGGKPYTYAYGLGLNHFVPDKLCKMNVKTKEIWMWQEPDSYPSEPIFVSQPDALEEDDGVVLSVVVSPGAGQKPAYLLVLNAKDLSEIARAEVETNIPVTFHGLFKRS
Experiment: In vivo murine isomerase assay (recovery of 11-cis-retinal after photobleaching)
Set-up: species or system mice
Details: for inhibition in vivo at 1 mg/kg / inhibition at 1 mg/kg / inhibition at 5 mg/kg / inhibition in vivo at 5 mg/kg / ED50: mouse; for inhibition in vivo at 1 mg/kg / inhibition in vivo at 5 mg/kg: read-out: % Inibition; for isomerase inhibitory activity / inhibition at 1 mg/kg / inhibition at 5 mg/kg: CD1 male mice; for inhibition at 1 mg/kg / inhibition at 5 mg/kg / ED50: po; for ED50: read-out: ED50 (dose of compound that gives 50% inhibition of 11-cis retinal (oxime) recovery), estimated, male Balb/c mice, HCl salts dosed orally in mg/kg; for ED50 / inhibition of isomerase activity in vivo (figure legend): photobleached 4 hours after dosing; for inhibition of isomerase activity in vivo (figure legend): oral dose response, Balb/c mice
Protocol: The capability of alkynyl phenyl-linked amine derivatives to inhibit isomerase is determined by an in vivo murine isomerase assay. Brief exposure of the eye to intense light (“photobleaching” of the visual pigment or simply “bleaching”) is known to photo-isomerize almost all 11-cis-retinal in the retina. The recovery of 11-cis-retinal after bleaching can be used to estimate the activity of isomerase in vivo. Delayed recovery, as represented by lower 11-cis-retinal oxime levels, indicates inhibition of isomerization reaction. Procedures were performed essentially as described by Golczak et al., Proc. Natl. Acad. Sci. […] See also Deigner et al., Science, 244: 968-71 (1989); […] Parish, et al., Proc. Natl. Acad. Sci. USA, 14609-13 (1998); […] Six-week old dark-adapted CD-1 (albino) male mice were orally gavaged with compound (0.03-3 mg/kg) dissolved in 100 μl corn oil containing 10% ethanol (five animals per group). […] After 2-24 hours in the dark, the mice were exposed to photobleaching of 5,000 lux of white light for 10 minutes. The mice were allowed to recover 2 hours in the dark. The animals were then sacrificed by carbon dioxide inhalation. Retinoids were extracted from the eye and the regeneration of 11-cis-retinal was assessed at various time intervals. All steps were performed in darkness with minimal redlight illumination (low light darkroom lights and […] flashlights for spot illumination as needed) (see, e.g., Maeda et al., J. Neurochem 85:944-956, 2003; Van Hooser et al., J Biol Chem 277:19173-82, 2002). After the mice were sacrificed, the eyes were immediately removed and placed in liquid nitrogen for storage. The eyes were placed in 500 μL of bis-tris propane buffer (10 mM, pH 7.3) and 20 μL of 0.8M hydroxile amine (pH-7.3). The eyes were cut up into small pieces with small iris scissors and then thoroughly homogenized at 30000 rpm with a mechanical homogenizer (Polytron PT 1300 D) in the tube until no visible tissue remained. 500 μL of methanol and 500 μL of heptane were added to each tube. The tubes were attached to a vortexer so that the contents were mixed thoroughly for 15 minutes in room temperature. […] The samples were analyzed on an Agilent 1100 HPLC system with normal phase column: SILICA (Beckman Coutlier, dp 5 μm, […]). The running method has a flow rate of 1.5 ml/min; solvent components are 15% solvent 1 (1% isopropanol in ethyl acetate), and 85% solvent 2 (100% hexanes). Loading volume for each sample is 100 μl; detection wavelength is 360 nm. The area under the curve for 11-cis retinal oxime was calculated by Agilent Chemstation software and was recorded manually. Data processing was performed using Prizm software. Positive control mice (no compound administered) were sacrificed fully dark-adapted and the eye retinoids analyzed. Light (bleached) control mice (no compound administered) were sacrificed and retinoids isolated and analyzed immediately after light treatment. […] Animals that received Compound 19 HCl were orally dosed with 0.01 and 1 mg/kg of compound in sterile water as solution, and photobleached 4 hours after dosing. Recovery and retinoid analysis were performed as described above. Dark control mice were vehicle-only treated, sacrificed fully dark adapted without light treatment, and analyzed. […] A time course study was performed to determine the isomerase inhibitory activity of Compounds 2, 18 and 19. Male Balb/c mice (4/group) received 3 mg Compound 2-HCl, Compound 18-HCl or Compound 19-HCl (in water) per kg bodyweight orally, by gavage. The animals were then “photo-bleached” (5000 Lux white light for 10 minutes) at 2, 4, 8, 16 and 24 hours after dosing, and returned to darkness to allow recovery of the 11-cis-retinal content of the eyes. Mice were sacrificed 2 hours after bleaching, eyes were enucleated, and retinoid content was analyzed by HPLC. A single dose study of the compound of Example 36 (Compound 36) was performed, at 1 mg/kg and 5 mg/kg oral dosing, 2, 4, 6, and 24 hours post bleaching. […]

SMILES | inhibition in vivo at 1 mg/kg (4 h) [%] | inhibition in vivo at 1 mg/kg (24 h) [%] | further results
COc1ccccc1C#Cc1cccc(C(O)CCN)c1 (stereo not shown) [Example 54, 3-Amino-1-(3-((2-Methoxyphenyl)Ethynyl)Phenyl)Propan-1-ol] | 67 | 58 | 
NCCOc1cccc(C#CC2CCCC2)c1 [Example 79, 2-(3-(Cyclopentylethynyl)phenoxy)-ethanamine] | 7 | 1 | 
COc1ccccc1C#Cc1cccc(CCCN)c1 [Example 36, 3-(3-((2-Methoxyphenyl)Ethynyl)Phenyl)Propan-1-Amine] |  |  | isomerase inhibitory activity (1 mg/kg single oral dose): inactive; isomerase inhibitory activity (5 mg/kg single oral dose, at 24 h): full recovery; inhibition at 1 mg/kg (1 mg/kg single oral dose, 2 h): 6%; inhibition at 1 mg/kg (1 mg/kg single oral dose, 6 h): 5%; inhibition at 1 mg/kg (1 mg/kg single oral dose, 24 h): 0%; inhibition at 5 mg/kg (5 mg/kg single oral dose, 2 h): 46%; inhibition at 5 mg/kg (5 mg/kg single oral dose, 6 h): 45%; inhibition at 5 mg/kg (5 mg/kg single oral dose, 24 h): 0%
NCCOc1cccc(C#CC2(O)CCSCC2)c1 [Example 55, 4-((3-(2-Aminoethoxy)Phenyl)Ethynyl)Tetrahydro-2H-Thiopyran-4-ol] | 16 | 7 | 
NCCOc1cccc(C#CC2CCCCC2)c1 [Example 80, 2-(3-(Cyclohexylethynyl)phenoxy)ethanamine] | 22 | 0 | 
NCCC(O)c1cccc(C#CCCCCO)c1 (stereo not shown) [Example 50, 6-(3-(3-Amino-1-hydroxypropyl)phenyl)hex-5-yn-1-ol] | 13 | 31 | 
NCCCc1cccc(C#CC2(O)CCCCC2)c1 [Example 11, 1-((3-(3-Aminopropyl)phenyl)ethynyl)cyclohexanol] | 0 | 0 | inhibition in vivo at 5 mg/kg (4 h): 17%; inhibition in vivo at 5 mg/kg (24 h): 0%
CC(C)C(O)(C#Cc1cccc(CCCN)c1)C(C)C [Example 32, 1-(3-(3-Aminopropyl)phenyl)-3-isopropyl-4-methylpent-1-yn-3-ol] | 75 | 14 | 
CCC(O)(C#Cc1cccc(CCCN)c1)CC [Example 1, 1-(3-(3-Aminopropyl)phenyl)-3-ethylpent-1-yn-3-ol] | 3 | 0 | 
CC(C)(C)C(C)(O)C#Cc1cccc(CCCN)c1 (stereo not shown) [Example 25, 1-(3-(3-Aminopropyl)phenyl)-3,4,4-trimethylpent-1-yn-3-ol] | 1 | 0 | 
CCCC(O)(C#Cc1cccc([C@H](O)CCN)c1)CCC [Compound 100, (R)-4-((3-(3-Amino-1-Hydroxypropyl)Phenyl)Ethynyl)Heptan-4-ol] |  |  | ED50: 0.2 mg/kg; inhibition of isomerase activity in vivo (figure legend): concentration-dependent inhibition
CC(C)C(O)(C#Cc1cccc(OCCN)c1)C(C)C [Example 28, 1-(3-(2-Aminoethoxy)phenyl)-3-isopropyl-4-methylpent-1-yn-3-ol] | 27 | 0 | 
NCCCc1cccc(C#C[C@@H](O)c2ccccc2)c1 [Example 26, (S)-3-(3-(3-Aminopropyl)phenyl)-1-phenylprop-2-yn-1-ol] | 18 | 0 | 
NCCCc1cccc(C#CC2CCCC2)c1 [Example 38, 3-(3-(Cyclopentylethynyl)phenyl)propan-1-amine] | 0 | 0 | inhibition in vivo at 5 mg/kg (4 h): 8%; inhibition in vivo at 5 mg/kg (24 h): 1%
CCCC(O)(C#Cc1cccc(CCCN)c1)CCC [Example 2, 4-((3-(3-Aminopropyl)phenyl)ethynyl)heptan-4-ol] |  |  | ED50: 0.69 mg/kg; inhibition of isomerase activity in vivo (figure legend): concentration-dependent inhibition
NCCC(O)c1cccc(C#CC2CCCC2)c1 (stereo not shown) [Example 47, 3-Amino-1-(3-(cyclopentylethynyl)phenyl)propan-1-ol] | 100 | 2 | 
NCCC(O)c1cccc(C#CC2CCCCC2)c1 (stereo not shown) [Example 52, 3-Amino-1-(3-(Cyclohexylethynyl)Phenyl)Propan-1-ol] | 72 | 2 | 
NCCOc1cccc(C#CCCCCO)c1 [Example 74, 6-(3-(2-Aminoethoxy)phenyl)hex-5-yn-1-ol] | 8 | 0 | 
CCCC(O)C#Cc1cccc(CCCN)c1 (stereo not shown) [Example 8, 1-(3-(3-Aminopropyl)phenyl)hex-1-yn-3-ol] |  |  | inhibition in vivo at 5 mg/kg (4 h): 0%; inhibition in vivo at 5 mg/kg (24 h): 0%
NCCCc1cccc(C#Cc2ccccn2)c1 [Example 61, 3-(3-(Pyridin-2-ylethynyl)phenyl)propan-1-amine] | 0 | 0 | 
NCCOc1cccc(C#Cc2cccnc2)c1 [Example 62, 2-(3-(Pyridin-3-ylethynyl)phenoxy)ethanamine] | 0 | 0 | 
CCCC(O)(C#Cc1cccc(C(O)CCN)c1)CCC (stereo not shown) [Example 19, 4-((3-(3-Amino-1-hydroxypropyl)phenyl)ethynyl)heptan-4-ol] |  |  | ED50: 0.33 mg/kg; inhibition of isomerase activity in vivo (figure legend): concentration-dependent inhibition
NCCCc1cccc(C#Cc2ccccc2)c1 [Example 37, 3-(3-(Phenylethynyl)phenyl)propan-1-amine] | 23 | 9 | inhibition in vivo at 5 mg/kg (4 h): 73%; inhibition in vivo at 5 mg/kg (24 h): 0%
NCCOc1cccc(C#CC2(O)CCCCC2)c1 [Example 57, 1-((3-(2-Aminoethoxy)phenyl)ethynyl)cyclohexanol] | 8 | 21 | 
NCCC(O)c1cccc(C#CC2(O)CCCCC2)c1 (stereo not shown) [Example 99, 1-((3-(3-Amino-1-hydroxypropyl)phenyl)ethynyl)cyclohexanol] | 31 | 0 | 
CCCC(O)(C#Cc1cccc([C@@H](O)CCN)c1)CCC [Compound 101, (S)-4-((3-(3-Amino-1-Hydroxypropyl)Phenyl)Ethynyl)Heptan-4-ol] |  |  | ED50: 0.38 mg/kg; inhibition of isomerase activity in vivo (figure legend): concentration-dependent inhibition
